Data reported in US9763444B2, “Compositions and methods for repelling blood-sucking and biting insects, ticks and mites” (The United States of America, as represented by the …, priority 2013, dated 2017).

Tests used:
Ae. aegypti = test: Minimum Effective Dosage (MED) test on treated cloth, mosquito repellency; assay type: in vivo, Aedes aegypti; settings: for mosquito repellent activity against Ae. aegypti (in words): MED test on treated cloth; for Ae. aegypti Minimum Effective Dosage, M9: human subject M9; for Ae. aegypti Minimum Effective Dosage, M10: human subject M10; for Ae. aegypti Minimum Effective Dosage, F1: human subject F1; for Ae. aegypti Minimum Effective Dosage, M1: human subject M1; for Ae. aegypti Minimum Effective Dosage, M2: human subject M2; for Ae. aegypti Minimum Effective Dosage, Average: mean of 3 volunteers
Experimental: Bioassay for mosquito repellent activity: Repellency screening test for experimental chemicals were carried out to identify candidates that might be useful repellents. The repellent efficacy was compared to that of the standard repellent, DEET. Experimental compounds were assessed in one of two ways: (1) a range of concentration was evaluated to determine the minimum effective dosage (MED) which was the concentration threshold of where the repellent began to fail and allowed bites, or (2) a predetermined concentration of each repellent was applied to cloth and the activity was evaluated over several days (or in some cases months) (Katritzky, A. R., et al., Proc. Nat. Acad. Sci. (US), 105, 7359-7364 (2008); Katritzky, A. R., et al., Journal of Med. Entomol., 47: 924-938 (2010)). When conducting assays for repellency, a failure point was also predetermined for those measurements. Since experiments described herein used about 500 female mosquitoes per test, the failure point was set at 1% (equal to 5 bites) received during a test interval. From 3 to 5 volunteers participated in the screening of each set of chemicals.
Minimum Effective Dosage (MED) Test: The MED bioassays on treated cloth were a method of screening to determine the minimum amount of a repellent needed to prevent bites. Experimental compounds were prepared in solution by combining 0.15 g of experimental chemical with 2 mL of acetone in a 7.1 mL screwtop glass vial. This solution was then serially diluted to obtain nine concentrations when applied on to the cloth patch: 1.5, 0.75, 0.375, 0.187, 0.094, 0.047, 0.023, 0.011, and 0.006 mg/cm^2. The standard N,N-diethyl-3-methylbenzamide (DEET) was also tested at the same concentration levels to serve as a control and a comparison for relative repellency. A 50 cm^2 (5 cm×10 cm) patch of muslin cloth was rolled lengthwise and placed into each of the glass vials and scaled with a screwtop so it soaked up the solution. Just prior to the experiment, the pieces of treated cloth were removed from the vials, affixed to card stock tabs (5 cm×3 cm) with staples, and hung with masking tape on a rack to dry and allow acetone to evaporate. Volunteers wore a latex glove over their hands, a nylon stocking over their arm, and then wrapped a plastic Velcro-sealed sleeve over their entire forearm with a 32 cm^2 (4 cm×8 cm) window cut-out to allow mosquitoes to bite through. The nylon stocking acted as a barrier between the dried cloth and the skin, an additional precaution with experimental compounds. Dried cloth patches were stretched across the window in the plastic sleeve and held in place with masking tape. Volunteers placed their sleeve-covered arms into a screened cage for a one minute period with approximately 500 female Ae. aegypti mosquitoes that had been preselected for host-seeking behavior using a draw box (Posey, K. H., and C. E. Schreck, Mosquito News, 41: 566-568 (1981)). […] The MED recorded was the lowest passing concentration level tested for the experimental compound. […] All human volunteers in the study provided informed consent to participate of a protocol approved by the University of Florida Human Use Institutional Review Board (IRB #636-2005).

An. albimanus = test: as above; assay type: in vivo, Anopheles albimanus; settings: Table 4, highest concentration 1.500 mg/cm^2; for An. albimanus Minimum Effective Dosage, M4: subject M4; for An. albimanus Minimum Effective Dosage, M5: subject M5; for An. albimanus Minimum Effective Dosage, M8: subject M8; for An. albimanus Minimum Effective Dosage, M9: subject M9; for An. albimanus Minimum Effective Dosage, M10: subject M10
[1] = Table 1 preliminary assay, human subject M4, highest concentration 1.500 mg/cm^2
[2] = Table 1 preliminary assay, human subject M5, highest concentration 1.500 mg/cm^2
[3] = Table 1 preliminary assay, human subject M8, highest concentration 1.500 mg/cm^2
[4] = Table 1 preliminary assay, highest concentration 1.500 mg/cm^2
[5] = Table 2, highest concentration 1.500 mg/cm^2
[6] = Table 5, subject M4, highest dose 0.375 mg/cm2 (0.187 for 7)
[7] = Table 5, subject M5, highest dose 0.375 mg/cm2 (0.187 for 7)
[8] = Table 5, subject M8, highest dose 0.375 mg/cm2 (0.187 for 7)

Question: With COC(=O)c1ccc2c(c1)C=CC(C)(C)O2 [Compound 5] as the molecule, how does the “mosquito repellent activity against Ae. aegypti (in words)” value (shortened to “mosquito repellent activity”) (Ae. aegypti) read?
Answer: mixed results

Question: What about the “Ae. aegypti Minimum Effective Dosage, M4” value (Ae. aegypti; [1]) of the same molecule?
Answer: >1.500 mg/cm^2

Question: What about the “Ae. aegypti Minimum Effective Dosage, M5” value (Ae. aegypti; [2]) of the same molecule?
Answer: 0.375 mg/cm^2

Question: What about the “Ae. aegypti Minimum Effective Dosage, M8” value (Ae. aegypti; [3]) of the same molecule?
Answer: 0.187 mg/cm^2

Question: And the “Ae. aegypti Minimum Effective Dosage, M9” value (Ae. aegypti; [4])?
Answer: 0.375 mg/cm^2

Question: What about the “Ae. aegypti Minimum Effective Dosage, M10” value (Ae. aegypti; [4]) of the same molecule?
Answer: >1.500 mg/cm^2

Question: What about the “An. albimanus Minimum Effective Dosage, M4” value (An. albimanus) of the same molecule?
Answer: 0.187 mg/cm^2

Question: And the “An. albimanus Minimum Effective Dosage, M5” value (An. albimanus)?
Answer: 0.375 mg/cm^2

Question: What about the “An. albimanus Minimum Effective Dosage, M8” value (An. albimanus) of the same molecule?
Answer: >1.500 mg/cm^2

Question: And the “An. albimanus Minimum Effective Dosage, M9” value (An. albimanus)?
Answer: 0.187 mg/cm^2

Question: And the “An. albimanus Minimum Effective Dosage, M10” value (An. albimanus)?
Answer: 0.750 mg/cm^2

Question: What does the source list for CC1(C)C=Cc2ccc(Cl)cc2O1 [Compound 12]?
Answer: Ae. aegypti Minimum Effective Dosage, F1 (Ae. aegypti; [5]): 0.750 mg/cm^2; Ae. aegypti Minimum Effective Dosage, M1 (Ae. aegypti; [5]): 0.750 mg/cm^2; Ae. aegypti Minimum Effective Dosage, M2 (Ae. aegypti; [5]): 0.750 mg/cm^2; Ae. aegypti Minimum Effective Dosage, Average (Ae. aegypti; Table 2): 0.750 mg/cm^2

Question: Which results are given for COC(=O)c1c(Cl)ccc2c1C=CC(C)(C)O2 [Compound 16]?
Answer: Ae. aegypti Minimum Effective Dosage, F1 (Ae. aegypti; [5]): >1.500 mg/cm^2; Ae. aegypti Minimum Effective Dosage, M1 (Ae. aegypti; [5]): >1.500 mg/cm^2; Ae. aegypti Minimum Effective Dosage, M2 (Ae. aegypti; [5]): >1.500 mg/cm^2

Question: For COC(=O)c1cccc2c1C=CC(C)(C)O2 [Compound 6], which “mosquito repellent activity” value (Ae. aegypti) is on record?
Answer: ineffective at the highest dosage tested

Question: And the “Ae. aegypti Minimum Effective Dosage, M4” value (Ae. aegypti; [6])?
Answer: >0.375 mg/cm^2

Question: What about the “Ae. aegypti Minimum Effective Dosage, M5” value (Ae. aegypti; [7]) of the same molecule?
Answer: >0.375 mg/cm^2

Question: And the “Ae. aegypti Minimum Effective Dosage, M8” value (Ae. aegypti; [8])?
Answer: >0.375 mg/cm^2

Question: With COc1ccc(CO)c2c1C=CC(C)(C)O2 [Compound 4] as the molecule, how does the “mosquito repellent activity” value (Ae. aegypti) read?
Answer: mixed results

Question: What about the “Ae. aegypti Minimum Effective Dosage, M4” value (Ae. aegypti; [1]) of the same molecule?
Answer: >1.500 mg/cm^2

Question: And the “Ae. aegypti Minimum Effective Dosage, M5” value (Ae. aegypti; [2])?
Answer: 0.375 mg/cm^2

Question: What about the “Ae. aegypti Minimum Effective Dosage, M8” value (Ae. aegypti; [3]) of the same molecule?
Answer: 0.375 mg/cm^2

Question: What about the “Ae. aegypti Minimum Effective Dosage, M9” value (Ae. aegypti; [4]) of the same molecule?
Answer: 0.750 mg/cm^2

Question: And the “Ae. aegypti Minimum Effective Dosage, M10” value (Ae. aegypti; [4])?
Answer: >1.500 mg/cm^2

Question: What about the “An. albimanus Minimum Effective Dosage, M4” value (An. albimanus) of the same molecule?
Answer: >1.500 mg/cm^2

Question: What about the “An. albimanus Minimum Effective Dosage, M5” value (An. albimanus) of the same molecule?
Answer: >1.500 mg/cm^2

Question: And the “An. albimanus Minimum Effective Dosage, M8” value (An. albimanus)?
Answer: >1.500 mg/cm^2

Question: What about the “An. albimanus Minimum Effective Dosage, M9” value (An. albimanus) of the same molecule?
Answer: 0.750 mg/cm^2

Question: And the “An. albimanus Minimum Effective Dosage, M10” value (An. albimanus)?
Answer: >1.500 mg/cm^2

Question: What does the source list for COCc1cccc2c1C=CC(C)(C)O2 [Compound 18, 5-(methoxymethyl)-2,2-dimethyl-2H-chromene]?
Answer: mosquito repellent activity against Ae. aegypti (in words) (Ae. aegypti): diminished repellent activity; Ae. aegypti Minimum Effective Dosage, Average (Ae. aegypti; Table 5): 0.094 mg/cm^2; Ae. aegypti Minimum Effective Dosage, M4 (Ae. aegypti; [6]): 0.047 mg/cm^2; Ae. aegypti Minimum Effective Dosage, M5 (Ae. aegypti; [7]): 0.047 mg/cm^2; Ae. aegypti Minimum Effective Dosage, M8 (Ae. aegypti; [8]): 0.187 mg/cm^2

Question: With CC1(C)C=Cc2cc(CO)ccc2O1 [Compound 7] as the molecule, how does the “mosquito repellent activity” value (Ae. aegypti) read?
Answer: ineffective

Question: And the “Ae. aegypti Minimum Effective Dosage, M4” value (Ae. aegypti; [6])?
Answer: >0.187 mg/cm^2

Question: What about the “Ae. aegypti Minimum Effective Dosage, M5” value (Ae. aegypti; [7]) of the same molecule?
Answer: >0.187 mg/cm^2

Question: What about the “Ae. aegypti Minimum Effective Dosage, M8” value (Ae. aegypti; [8]) of the same molecule?
Answer: >0.187 mg/cm^2
